Measured values from patent publication US20240207202A1, “COMBINATION THERAPIES TARGETING MITOCHONDRIAL BIOGENESIS FOR CANCER THERAPY” (The Wistar Institute of Anatomy and Biology, priority 2015, published 2024).
Read-outs that look alike come from different tables or passages of the source.

What was measured:
[1] = system: 1205Lu melanoma xenograft; experiment: Tumor volume of 1205Lu melanoma xenografts; assay type: in vivo, mice; conditions: 1205Lu xenografts
WM9 melanoma cells = experiment: Induction of apoptosis and cell death by PSVue 643 staining in WM9 melanoma cells; assay type: cell-based, human; conditions: WM9, 72 h
Experimental: Adherent melanoma cells were harvested with 0.05% Trypsin-EDTA and were washed once with 1×DPBS. Cells were labeled with CellTrace™ Violet according to the manufacturer's protocol and were allowed to adhere to tissue culture plates overnight following the drug treatment. […] Cells were then immediately subjected to FACS analysis using a BD LSR II flow cytometer and at least 5,000 cells per sample were acquired.
Cell suspensions were kept in the dark at room temperature for 5 min. 0.2 ml 1×PBS supplemented with 10% FBS was added to each cell suspension and cells were immediately analyzed by BD LSRII.
Briefly, autophagic flux was assessed by FACS analysis of WM9 cells expressing the mCherry-eGFPLC3B construct that were transfected with the indicated siRNAs targeting autophagy and ER stress response and treated for 72 h with DMSO or the combination of PLX4720 at 10 μM and PD0325901 at 1 μM. The data represent the average of 2 biological replicates. […] Autophagic flux was assessed by FACS analysis of WM9 cells expressing the mCherry-eGFPLC3B construct treated for 72 h with Gamitrinib at 1 μM or Spautin-1 at 10 μM in combination with PLX4720 at 10 μM/PD0325901 at 1 μM. Cells treated with DMSO were used as the control for setting up the gate.

[2] = system: CCLE melanoma cell lines with BRAFV600 mutations; conditions: MitoB high vs low subgroups, two sample t-test; cited from earlier work
MitoBiogenesis [3] = conditions: Malme-3M and COLO829, 8 h; public gene expression microarray data; cited from earlier work
MitoBiogenesis [4] = experiment: Expression of 18 MitoBiogenesis genes in melanoma cells (microarray, qRT-PCR, immunoblot); assay type: cell-based, human; conditions: for expression of MitoBiogenesis: qRT-PCR, 72 h
Experimental: One μg total mRNA was reverse transcribed using a Maxima First Strand cDNA Synthesis Kit for qRT-PCR (Thermo Fisher). Fast SYBR® Green Master Mix (Life Technologies) was used with cDNA template and primers to evaluate the expression of target genes and GAPDH. Primers used were purchased from Integrated DNA Technologies. Amplifications were performed using an Applied Biosystems® 7500 Real-Time PCR System (Life Technologies). All experiments were performed in triplicate. Expression ratios of controls were normalized to 1. Please see Extended Experimental Procedures for the list of PCR primer sequences. Access of Gene Expression Microarray Data and TCGA Melanoma Patients' RNA-seq Data Time-course Illumina gene expression microarray data of WM9 melanoma cells were deposited at the NCBI Gene Expression Omnibus (GEO) (ncbi.nlm.nih.gov/geo/) under the accession number GSE58721. Normalized CCLE gene expression microarray data were directly downloaded from Broad CCLE (broadinstitute.org/ccle). Gene expression microarray data of A375 and SK-MEL-28 melanoma cells were downloaded from GEO under accession numbers GSE42872 and GSE37441, respectively. Gene expression microarray data of Malme-3M and COLO829 melanoma cells were downloaded from GEO under the accession number GSE51113. Normalized RNA-seq data of TCGA melanoma patients were downloaded from TCGA Data Portal (https://tcga-data.nci.nih.gov/tcga/). Cells were washed with ice-cold PBS containing 100 μM Na3VO4 and scraped off culture dishes. After centrifugation, cell pellets were lysed in buffer containing 10 mM Tris-HCl, pH 7.8, 150 mM NaCl, 1 mM EDTA, 1% Nonidet P-40, 1 mM Na3VO4 and protease inhibitors (Roche complete protease inhibitor tablets). Lysates were cleared by micro-centrifugation and protein concentrations were determined with Protein Assay Dye Reagent Concentrate (Bio-Rad). For western blots, 25 μg of each lysate were run on 15-well 10% or 12% SDS-PAGE gels and transferred onto nitrocellulose membranes using a dye fast Trans-BlotR Turbo™ transfer system (Bio-Rad). […]

[5] = system: mitochondrial respiratory chain complex subunits; experiment: Expression of mitochondrial respiratory chain complex subunits in WM9 cells (qRT-PCR, RPPA, immunoblot); assay type: cell-based, human; conditions: qRT-PCR
Experimental: One μg total mRNA was reverse transcribed using a Maxima First Strand cDNA Synthesis Kit for qRT-PCR (Thermo Fisher). Fast SYBR® Green Master Mix (Life Technologies) was used with cDNA template and primers to evaluate the expression of target genes and GAPDH. Primers used were purchased from Integrated DNA Technologies. Amplifications were performed using an Applied Biosystems® 7500 Real-Time PCR System (Life Technologies). All experiments were performed in triplicate. Expression ratios of controls were normalized to 1. Please see Extended Experimental Procedures for the list of PCR primer sequences. The raw data of gene expression microarrays generated from Illumina Chips were normalized, background-corrected and summarized using the R package “lumi” (Du et al., 2008). […] To reduce false positives, the unexpressed probes were removed. The R package “limma” (Smyth, 2004, 2005) was employed for gene differential expression analysis, followed by multiple test correction by the Benjamini and Hochberg procedure (Benjamini and Hochberg, 1995). […] We also conducted GSEA as previously reported (Subramanian et al., 2005). For GSEA, we analyzed gene sets obtained from the Molecular Signatures Database (broadinstitute.org/gsea/msigdb/). The same differential expression analysis method was applied to RPPA data. Cells were washed with ice-cold PBS containing 100 μM Na3VO4 and scraped off culture dishes. After centrifugation, cell pellets were lysed in buffer containing 10 mM Tris-HCl, pH 7.8, 150 mM NaCl, 1 mM EDTA, 1% Nonidet P-40, 1 mM Na3VO4 and protease inhibitors (Roche complete protease inhibitor tablets). Lysates were cleared by micro-centrifugation and protein concentrations were determined with Protein Assay Dye Reagent Concentrate (Bio-Rad). For western blots, 25 μg of each lysate were run on 15-well 10% or 12% SDS-PAGE gels and transferred onto nitrocellulose membranes using a dye fast Trans-BlotR Turbo™ transfer system (Bio-Rad). Blots were blocked in SEA BLOCK Blocking Buffer (Thermo Scientific) diluted with 1×TBS at 1:1 ratio at room temperature for 1 h, incubated overnight with primary antibody at 4° C., stained with secondary antibodies conjugated to IRDye® Infrared Dyes (LI-COR Biosciences) and then visualized using an Odyssey flatbed scanner (LI-COR Biosciences).

[6] = system: BRAF(V600E), BRAF(wild type), c-RAF, VEGFR2, PDGFR, CSF1R, RET, c-KIT, SRC, STE20; conditions: range over several intracellular kinases; cited from earlier work
[7] = system: BRAFV600E, VEGFR2, PDGFRB, c-KIT; conditions: cited from earlier work
autophagic flux = experiment: Autophagic flux in WM9 cells expressing mCherry-eGFP-LC3B; assay type: cell-based, human; conditions: WM9, 72 h, Gamitrinib 1 μM or Spautin-1 10 μM combined with PLX4720 10 μM/PD0325901 1 μM
Experimental: WM9 cells stably expressing pLVO-Puro-mCherry-eGFP-LC3 were analyzed with a BD LSR II flow cytometer. Fluorescence of mCherry and eGFP was recorded to derive the ratio of mCherryheight over eGFP-height. This ratio indicates the autophagic flux.
Briefly, autophagic flux was assessed by FACS analysis of WM9 cells expressing the mCherry-eGFPLC3B construct that were transfected with the indicated siRNAs targeting autophagy and ER stress response and treated for 72 h with DMSO or the combination of PLX4720 at 10 μM and PD0325901 at 1 μM. The data represent the average of 2 biological replicates. Induction of apoptosis and cell death was assessed by PSVue 643 staining in WM9 cells expressing the mCherry-eGFP-LC3B construct transfected with the indicated siRNAs targeting autophagy and ER stress response and treated for 72 h with DMSO or the combination of PLX4720 at 10 μM and PD0325901 at 1 μM. Autophagic flux was assessed by FACS analysis of WM9 cells expressing the mCherry-eGFPLC3B construct treated for 72 h with Gamitrinib at 1 μM or Spautin-1 at 10 μM in combination with PLX4720 at 10 μM/PD0325901 at 1 μM. Cells treated with DMSO were used as the control for setting up the gate. Induction of apoptosis and cell death was assessed by PSVue 643 staining in WM9 cells treated for 72 h with Gamitrinib at 1 μM or Spautin-1 at 10 μM in combination with PLX4720 at 10 μM/PD0325901 at 1 μM. […]

[8] = Table 6, mice treated 15 days, PLX4720 200 mg/kg diet, 2,4-DNP 20 mg/kg QD p.o., alone or combined

O=[N+]([O-])c1ccc(O)c([N+](=O)[O-])c1 [2,4-DNP, 2,4-dinitrophenol]
tumor growth ([1]; 2,4-DNP alone or with PLX4720, combination compared to PLX4720 alone): failed to inhibit tumor growth
% T/C (percentages of tumor volumes) [1, 8]: 101.96%

CC(=O)N[C@@H](CS)C(=O)O [NAC, N-acetyl-L-cysteine]
apoptosis and cell death induced by the combination of Gamitrinib and MAPK pathway inhibitors (WM9 melanoma cells; NAC 5 mM): markedly suppress apoptosis and cell death

O=C(NOC[C@H](O)CO)c1ccc(F)c(F)c1Nc1ccc(I)cc1F [PD0325901]
drug IC50 of cell lines with higher basal level of MitoBiogenesis versus lower [2]: significantly lower drug IC50
expression of MitoBiogenesis (MitoBiogenesis [3]): inhibited

CCCS(=O)(=O)Nc1ccc(F)c(C(=O)c2c[nH]c3ncc(Cl)cc23)c1F [PLX4720]
% T/C (percentages of tumor volumes) [1, 8]: 51.41%
% T/C (percentages of tumor volumes) ([1]; Table 7, 17 days, PLX4720 200 mg/kg diet): 56.88%
expression of MitoBiogenesis (MitoBiogenesis [4]; A375 cells): decreased the expression of MitoBiogenesis
expression of MitoBiogenesis (protein) (MitoBiogenesis [4]; WM9 cells, PLX4720 10 μM, 72 h time course, immunoblotting): up-regulated in a time-dependent manner
expression of MitoBiogenesis (MitoBiogenesis [4]; WM793 or WM9 cells): up-regulated MitoBiogenesis
expression of 30 mitochondria respiratory chain complex subunits ([5]; WM9, 72 h): substantially up-regulated
expression of 5 representative mitochondrial respiratory chain complex subunits ([5]; WM9, PLX4720 10 μM up to 120 h): up-regulated
drug IC50 of cell lines with higher basal level of MitoBiogenesis versus lower [2]: significantly lower drug IC50

N=C(N)NC(=N)NCCc1ccccc1 [Phenformin, 1-phenethylbiguanide]
apoptosis and cell death, compared with other inhibitors of the drug screen (WM9 melanoma cells; titrated doses combined with MAPK pathway inhibitors (PLX4720 10 μM, PD0325901 1 μM)): greater increase in apoptosis and cell death

Cn1c(Nc2ccc(C(F)(F)F)cc2)nc2cc(Oc3ccnc(-c4ncc(C(F)(F)F)[nH]4)c3)ccc21 [RAF265]
drug IC50 of cell lines with higher basal level of MitoBiogenesis versus lower [2]: significantly lower drug IC50
potency in cell-based assays ([7]; BRAFV600E and VEGFR2): most potent
potency in cell-based assays ([7]; PDGFRB and c-KIT): less active

Fc1ccc(CNc2ncnc3ccc(F)cc23)cc1 [Spautin-1, reference compound]
induction of apoptosis and cell death (WM9 melanoma cells; Spautin-1 10 μM combined with PLX4720 10 μM/PD0325901 1 μM): not able to trigger a significant induction of apoptosis and cell death
autophagic flux (autophagic flux): effectively decreased the autophagic flux
